In patent publication US20210290676A1, “IMPROVING THE EFFICACY AND SAFETY OF ADOPTIVE CELLULAR THERAPIES” (University of Southern California, priority 2018, published 2021):

Legend:
Type in all cases: cell-based, human
[1] = tested on: Pgp+ (DiOC2(3)-dye effluxing cells) and CD62L+ T cells; experiment: DiOC2(3) dye efflux plus CD62L-APC staining, flow cytometry of inhibitor-treated T cells
Description: (§1) The use of P-glycoprotein (Pgp)-mediated efflux of DiOC2(3) to isolate stem like T cells for adoptive cellular therapy has been described in application no. […] In the following examples, DiOC2(3) staining was used to study the effect of different inhibitors on generation of stem like T cells.
(§2) DAY 0: Blood was obtained from unidentified donor. After RBC lysis, PBMC were collected using Ficoll-Hypaque separation. […] T cells were cultured in three different conditions: • 1. XVIVO 15 medium (Lonza) with IL2 50 IU/ml, CD3 antibody (30 ng/ml) and CD28 antibody (30 ng/ml). • 2. XVIVO 15 medium (Lonza) with CD3 antibody (30 ng/ml) and CD28 antibody (30 ng/ml). • 3. XVIVO 15 medium (Lonza) with IL2 50 IU/ml DAY 1: Cells were plated in a 6-well plate at a density of 1 million cells in 2 ml/of media (as described above) and treated with different inhibitors
(§3) The cell growth medium was changed in 6-well plates and fresh drugs were added at same concentration for one more week.
(§4) […] (DAY 11): Culture medium was changed and fresh drugs were added in 6-well plates.
(§5) Subsequently, cells were washed with RPMI medium and dye was effluxed at 37° C. for 90 min. Cells were washed with […], stained with CD62L-APC (5 μl/100 μl/sample) at 4° C. for 1 h, washed twice with PBS+1% FBS and analyzed on flow cytometer to check if these drugs treatment leads to increase in Pgp+/CD62L positive population.
(§6) Day 0: Blood was obtained from unidentified donor. After RBC lysis, PBMC were collected using Ficoll-Hypaque separation. 200 million T cells were isolated from PBMCs using CD3 microbeads. T cells were cultured overnight in XVIVO 15 medium (Lonza) with IL2 (50 IU/ml), 30 ng/ml of CD3 and CD28 antibodies
(§7) Day 1: Cells were plated in 24-well plates at a density of 0.3 million cells/ml in each well and treated with different drugs.
(§8) On day 7, culture medium was replaced with fresh medium with fresh drugs.
(§9) On day 13, culture medium was replaced with fresh medium and fresh drugs. Half of the cells were transferred to 6-well plates.
(§10) Day 14: An aliquot of cells with all the treatments listed above (for 13 days) was used to stain the cells with DiOC2(3) (60 ng/ml in RPMI medium) at 4° C. for 40 min, washed with RPMI medium, DiOC2(3) dye was effluxed at 37° C. for 90 min, washed with PBS+1% FBS, stained with CD62L-APC antibody. CD62L is a marker for resting T cells. (5 μl/100 μl/sample) at 4° C. for 1 h, washed twice with PBS+1% FBS and analyzed on flow cytometer to check if these drugs are affecting the dye-effluxing or Pgp+ (i.e., DiOC2(3)-dull) T-cell population.

[2] = tested on: CD8+CD45RA+CCR7+CD62L+ T cells; experiment: Flow cytometry for CD8, CD45RA, CCR7 and CD62L on inhibitor-treated T cells; conditions: 13 days of treatment
Description: as §2
(§11) A second aliquot of the cells cultured for 13 days with all the treatments listed above (1-21) was washed with PBS+1% FBS, stained with CD8-PerCP, CD45RA-FITC, CCR7-PE and CD62L-APC (5% Y/100 μl/sample for each of 4 antibodies) at 4° C. for 1 h, washed twice with PBS+100 FBS and analyzed on flow cytometer to check if these drugs are enriching T stem cells showing surface expression of CD8+CD45RA+CCR7+CD62L+.
as §6, §7, §8, §9
as §11, with “14” for “13”, “above” for “above (1-21)”, “(5 ul/100 ul/sample” for “(5% Y/100 μl/sample”, “PBS+1%” for “PBS+100”, “enriching for” for “enriching”, “T” for “T stem”

[3] = tested on: Pgp+ (DiOC2(3)-dye effluxing) T cells; experiment: DiOC2(3) dye efflux flow cytometry of inhibitor-treated T cells
Description: as §1, §2, §3, §4, §5, §6, §7, §8, §9, §10

[4] = tested on: CD45RA+CCR7+CD62L+ T cells; experiment: Flow cytometry for CD45RA, CCR7 and CD62L on inhibitor-treated T cells (all T cells); conditions: 13 days treatment
Description: as §2, §11, §6, §7, §8, §9
as §11, with “14” for “13”, “above” for “above (1-21)”, “(5 ul/100 ul/sample” for “(5% Y/100 μl/sample”, “PBS+1%” for “PBS+100”, “enriching for” for “enriching”, “T” for “T stem”

[5] = culture with CD3 antibody, CD28 antibody and IL2, 6 days of treatment, 500 nM
[6] = CD3-CD28-IL2 culture, inhibitor 100 nM
[7] = CD3-CD28-IL2 culture, inhibitor 500 nM
[8] = CD3-CD28-IL2 culture, inhibitor 1 μM
[9] = CD3-CD28 culture, inhibitor 100 nM
[10] = CD3-CD28 culture, inhibitor 500 nM
[11] = CD3-CD28 culture, inhibitor 1 μM
[12] = CD3-IL2 culture, inhibitor 100 nM
[13] = CD3-IL2 culture, inhibitor 500 nM
[14] = CD3-IL2 culture, inhibitor 1 μM

CCCc1cc(C)[nH]c(=O)c1CNC(=O)c1cc(-c2ccnc(N3CCN(C)CC3)c2)cc2c1cnn2C(C)C [GSK343]
% of Pgp+ CD62L+cells out of live cells ([1]; CD3-CD28-IL2 culture, inhibitor 100 nM, 6 days treatment): 8.57% | % of Pgp+ CD62L+cells out of live cells ([1]; CD3-CD28-IL2 culture, inhibitor 100 nM, 13 days treatment): 7.96% | % of Pgp+ CD62L+cells out of live cells ([1]; CD3-CD28-IL2 culture, inhibitor 500 nM, 6 days treatment): 13.33% | % of Pgp+ CD62L+cells out of live cells ([1]; CD3-CD28-IL2 culture, inhibitor 500 nM, 13 days treatment): 4.79% | % of Pgp+ CD62L+cells out of live cells ([1]; CD3-CD28-IL2 culture, inhibitor 1 μM, 6 days treatment): 12.05% | % of Pgp+ CD62L+cells out of live cells ([1]; CD3-CD28-IL2 culture, inhibitor 1 μM, 13 days treatment): 5.75% | % of Pgp+ CD62L+cells out of live cells ([1]; CD3-CD28 culture, inhibitor 100 nM, 6 days treatment): 23.35% | % of Pgp+ CD62L+cells out of live cells ([1]; CD3-CD28 culture, inhibitor 100 nM, 13 days treatment): 2.50% | % of Pgp+ CD62L+cells out of live cells ([1]; CD3-CD28 culture, inhibitor 500 nM, 6 days treatment): 24.79% | % of Pgp+ CD62L+cells out of live cells ([1]; CD3-CD28 culture, inhibitor 500 nM, 13 days treatment): 2.12% | % of Pgp+ CD62L+cells out of live cells ([1]; CD3-CD28 culture, inhibitor 1 μM, 6 days treatment): 23.41% | % of Pgp+ CD62L+cells out of live cells ([1]; CD3-CD28 culture, inhibitor 1 μM, 13 days treatment): 2.28% | % of Pgp+ CD62L+cells out of live cells ([1]; CD3-IL2 culture, inhibitor 100 nM, 6 days treatment): 8.62% | % of Pgp+ CD62L+cells out of live cells ([1]; CD3-IL2 culture, inhibitor 100 nM, 13 days treatment): 5.24% | % of Pgp+ CD62L+cells out of live cells ([1]; CD3-IL2 culture, inhibitor 500 nM, 6 days treatment): 9.32% | % of Pgp+ CD62L+cells out of live cells ([1]; CD3-IL2 culture, inhibitor 500 nM, 13 days treatment): 6.82% | % of Pgp+ CD62L+cells out of live cells ([1]; CD3-IL2 culture, inhibitor 1 μM, 6 days treatment): 10.99% | % of Pgp+ CD62L+cells out of live cells ([1]; CD3-IL2 culture, inhibitor 1 μM, 13 days treatment): 5.17% | percentage of Pgp+CD62L+ cells [1, 5]: 13.33% | % of CD62L+CCR7+ double positive cells out of CD45RA+ cells in CD8+ T cell population [2, 6]: 82.96% | % of CD62L+CCR7+ double positive cells out of CD45RA+ cells in CD8+ T cell population [2, 7]: 82.42% | % of CD62L+CCR7+ double positive cells out of CD45RA+ cells in CD8+ T cell population [2, 8]: 85.00% | % of CD62L+CCR7+ double positive cells out of CD45RA+ cells in CD8+ T cell population [2, 9]: 85.28% | % of CD62L+CCR7+ double positive cells out of CD45RA+ cells in CD8+ T cell population [2, 10]: 80.34% | % of CD62L+CCR7+ double positive cells out of CD45RA+ cells in CD8+ T cell population [2, 11]: 85.70% | % of CD62L+CCR7+ double positive cells out of CD45RA+ cells in CD8+ T cell population [2, 12]: 73.95% | % of CD62L+CCR7+ double positive cells out of CD45RA+ cells in CD8+ T cell population [2, 13]: 77.29% | % of CD62L+CCR7+ double positive cells out of CD45RA+ cells in CD8+ T cell population [2, 14]: 81.47% | % of Pgp+ cells out of live cells ([3]; CD3-CD28-IL2 culture, inhibitor 100 nM, 6 days of treatment): 23.29% | % of Pgp+ cells out of live cells ([3]; CD3-CD28-IL2 culture, inhibitor 100 nM, 13 days of treatment): 27.15% | % of Pgp+ cells out of live cells ([3]; CD3-CD28-IL2 culture, inhibitor 500 nM, 6 days of treatment): 30.62% | % of Pgp+ cells out of live cells ([3]; CD3-CD28-IL2 culture, inhibitor 500 nM, 13 days of treatment): 18.00% | % of Pgp+ cells out of live cells ([3]; CD3-CD28-IL2 culture, inhibitor 1 μM, 6 days of treatment): 28.03% | % of Pgp+ cells out of live cells ([3]; CD3-CD28-IL2 culture, inhibitor 1 μM, 13 days of treatment): 23.42% | % of Pgp+ cells out of live cells ([3]; CD3-CD28 culture, inhibitor 100 nM, 6 days of treatment): 48.43% | % of Pgp+ cells out of live cells ([3]; CD3-CD28 culture, inhibitor 100 nM, 13 days of treatment): 11.66% | % of Pgp+ cells out of live cells ([3]; CD3-CD28 culture, inhibitor 500 nM, 6 days of treatment): 47.09% | % of Pgp+ cells out of live cells ([3]; CD3-CD28 culture, inhibitor 500 nM, 13 days of treatment): 10.34% | % of Pgp+ cells out of live cells ([3]; CD3-CD28 culture, inhibitor 1 μM, 6 days of treatment): 46.26% | % of Pgp+ cells out of live cells ([3]; CD3-CD28 culture, inhibitor 1 μM, 13 days of treatment): 9.43% | % of Pgp+ cells out of live cells ([3]; CD3-IL2 culture, inhibitor 100 nM, 6 days of treatment): 25.49% | % of Pgp+ cells out of live cells ([3]; CD3-IL2 culture, inhibitor 100 nM, 13 days of treatment): 20.31% | % of Pgp+ cells out of live cells ([3]; CD3-IL2 culture, inhibitor 500 nM, 6 days of treatment): 25.21% | % of Pgp+ cells out of live cells ([3]; CD3-IL2 culture, inhibitor 500 nM, 13 days of treatment): 23.54% | % of Pgp+ cells out of live cells ([3]; CD3-IL2 culture, inhibitor 1 μM, 6 days of treatment): 28.31% | % of Pgp+ cells out of live cells ([3]; CD3-IL2 culture, inhibitor 1 μM, 13 days of treatment): 17.50% | percentage of Pgp+ cells [3, 5]: 30.62% | % of CD62L+CCR7+ double positive cells out of CD45RA+ cells in live T cell population [4, 6]: 66.40% | % of CD62L+CCR7+ double positive cells out of CD45RA+ cells in live T cell population [4, 7]: 64.47% | % of CD62L+CCR7+ double positive cells out of CD45RA+ cells in live T cell population [4, 8]: 67.37% | % of CD62L+CCR7+ double positive cells out of CD45RA+ cells in live T cell population [4, 9]: 75.26% | % of CD62L+CCR7+ double positive cells out of CD45RA+ cells in live T cell population [4, 10]: 67.97% | % of CD62L+CCR7+ double positive cells out of CD45RA+ cells in live T cell population [4, 11]: 76.18% | % of CD62L+CCR7+ double positive cells out of CD45RA+ cells in live T cell population [4, 12]: 58.51% | % of CD62L+CCR7+ double positive cells out of CD45RA+ cells in live T cell population [4, 13]: 61.18% | % of CD62L+CCR7+ double positive cells out of CD45RA+ cells in live T cell population [4, 14]: 61.06%
